Laboratory results as given in patent publication US6476010B2, “Method for increasing intestinal absorption of fat soluble vitamins in post-menopausal women and lower animals” (Hill's Pet Nutrition, priority 2000, dated 2002).

Experiments:
ovariectomized rats [1] = test: Lymphatic absorption of α-tocopherol after 5 weeks of dietary carnitine (mesenteric lymph duct cannulation); type: in vivo, rat; settings: carnitine supplemented diet for 5 weeks
Experimental: Thirty two 10 weeks old female Sprague-Dawley rats weighing 208±8 g (Harlan Sprague Dawley, Indianapolis, Ind.) were housed and fed as described in Example 1. At the end of second week, at the average body weight of 240±9 g, the rats were ovariectomized under halothane anesthesia after 16 hours fasting. Initial (0 week) blood samples were taken from 6 randomly selected rats.
Immediately after surgery, rats were divided into the following two experimental groups as described in Example 1, i.e., one group was fed a diet supplemented with carnitine, and one control group. The normal food intake for both groups was about 15-16 g/day/rat.
At the end of the 5th week, Lymph duct cannulation was performed on each group having an average body weight of 340±15 g. Cannulation of the mesenteric lymph duct was performed, following 16 hours food deprivation, as described previously (Noh et al., supra). Briefly, after a midline abdominal incision was performed, the mesenteric lymph duct was cannulated with polyethylene tubing (SV 31 tubing, Dural Plastics, Auburn, Australia) by securing with a drop of cyanoacrylate glue (Krazy Glue, Columbus, Ohio) under halothane anesthesia (2.0% halothane in 2.01 oxygen/min). A silicone feeding catheter (Silastic medical grade tubing, Dow Coming, Midland, Mich.) was inserted into the gastric fundus region. The infusion catheter was exteriorized alongside the lymph cannula through the right flank. Cannulated rats were placed in individual restraining cages and allowed to recover for at least 20 hours in a warm recovery chamber kept at about 30° C. Immediately following surgery, glucose-phosphate buffered saline (PBS) (in mmol/l: 277 glucose, 6.75 Na2HPO4, 16.5 NaH2PO4, 115 NaCl, and 5 KCI; pH 6.7) was continuously infused through the duodenal cannula at 3.0 ml/h via a syringe pump (Harvard Apparatus, Model 935, South Natick, Mass.).
After postoperative recovery, rats were infused with a lipid emulsion containing 1 μCi of [carboxyl-^14C]-triolein (specific activity 112.0 mCi/mmol, DuPont NEN, Boston, Mass.), 565 μmol triolein (95%, Sigma Chemical, St. Louis, Mo.), 3.56 μmol α-tocopherol (all-rac-a-tocopherol, 97%, Aldrich Chemical, Milwaukee, Wis.), and 396 μmol sodium taurocholic acid in 24 ml of PBS. Lymph was collected hourly for 8 hours in pre-weighed conical centrifuge tubes containing 30 μg of n-propyl gallate and 4 mg of Na2EDTA in ice-filled beakers. After lymph collection, the rats were killed by cervical dislocation, and the livers were collected. The samples were stored at about −70° C. until analysis.
From the lipid extracted (Folch et al., supra), tissue total phospholipid was measured colorimetrically by the method of Reheja et al. (J Lipid Res 1973;14:695-697). Tissue total cholesterol was determined as described by Rudel et al. (J Lipid Res 1973;21:364-366). Alpha-tocopherol was determined as described by Zaspel et al (supra) and in Example 1 above. Statistical analyses were conducted as described in Example 1.

ovariectomized rats [2] = test: Liver levels and biliary secretion of α-tocopherol after 8 weeks of dietary carnitine (bile duct cannulation); type: in vivo, rat
Experimental: Thirty two 10 weeks old female Sprague-Dawley rats weighing 214±6 g (Harlan Sprague Dawley, Indianapolis, Ind.) were placed individually in plastic cages with stainless steel wire-bottoms in a windowless room at a controlled temperature of about 23° C. and subjected to a light-dark cycle with the light period from 3:30 pm to 3:30 am and the dark period from 3:30 am to 3:30 pm. The rats were acclimatized for 1 week with free access to the deionized water and ad libitum fed a zinc-adequate AIN-93G diet (Reeves et al., J Nutr 1993;123:1939-1951) formulated by Dyets, Inc. (Bethlehem, Pa., USA) with 7% soybean oil as a fat source. Zinc carbonate was added to provide the desired levels of zinc. At the end of the first week, at the average body weight of 230±12 g, the rats were ovariectomized under halothane anesthesia after 16 hours of fasting. Initial blood samples (week 0) were taken from 5 randomly selected rats. After 1 week of postoperative recovery, rats were divided into the following two experimental groups by matching body weight: One group of rats was fed a zinc-adequate AIN-93G diet containing α-tocopherol-stripped soybean oil; 150 ppm Sipernat® 50, which is hydrated silica available from Degussa Corporation, Ridgefield, N.J.; and supplemented with 150 mg/kg L-carnitine. A control group was fed the same diet, except that the 150 mg/kg of L-carnitine was substituted with 150 ppm of α-D-glucose. The normal food intake for both groups was around 15 g/day/rat. Blood samples were taken at the beginning of 1, 3, 5, 8 weeks from 5 randomly selected rats in each group. At the end of the 8th week, bile duct cannulation was performed on the rats in both groups having an average body weight of about 340±15 g. Cannulation of the common bile duct was performed, following 16 hours food deprivation, as described previously (Noh et al., J Nutr Biochem 1999;10:110-117). Briefly, after performing a midline abdominal incision, the common bile duct was cannulated with PE-10 tubing (Clay Adams, Sparks, Md.) under halothane anesthesia (2.0% halothane in 2.01 oxygen/min). A silicone feeding catheter (Silastic medical grade tubing, Dow Coming, Midland, Mich.) was inserted into the gastric fundus region. The infusion catheter was exteriorized alongside the bile cannula through the right flank. Cannulated rats were placed in individual restraining cages and allowed to recover for at least 20 hours in a warm recovery chamber kept at about 30° C. Immediately after surgery, glucose-phosphate buffered saline (PBS) (in mmol/l: 277 glucose, 6.75 Na2HPO4, 16.5 NaH2PO4, 115 NaCl, and 5 KCI; pH 6.7) was continuously infused through the duodenal cannula at 3.0 ml/h via a syringe pump (Harvard Apparatus, Model 935, South Natick, Mass.). After postoperative recovery, rats were infused with a lipid emulsion containing 565 μmol triolein (95%, Sigma Chemical, St. Louis, Mo.), and 396 μmol sodium taurocholic acid in 24 ml of PBS. Bile was collected hourly for 8 hours in pre-weighed conical centrifuge tubes containing 30 μg of n-propyl gallate in ice filled beakers. After bile collection, the rats were killed by cervical dislocation, and the livers were dissected. The samples were stored at about −70° C. until analysis. Lipids were extracted by Folch's method (Folch et al., J Biol Chem 1957;226:497-509). The content of α-tocopherol was determined as described by Zaspel et al. (Anal. Biochem. 1983;130:146-150). […]

[3] = significant difference vs control

SMILES: C[N+](C)(C)C[C@H](O)CC(=O)[O-] [carnitine, L-carnitine]
- lymphatic absorption of α-tocopherol for 8 hours (ovariectomized rats [1]; lipid emulsion with 3.56 μmol α-tocopherol infused, P<0.05 vs control): 899±200 nmol/8 h
- lymph flow (ovariectomized rats [1]; lymph collected for 8 hours, no difference vs control): 22.6±4.2 ml/8 hours
- absorption of 14C-triolein (ovariectomized rats [1]; lymph for 8 hours, P<0.05 vs control): 53.5±4.0 % dose
- ratio of lymph α-tocopherol/cholesterol (ovariectomized rats [1]; [3]): 82.7±17.1 nmol/μmol
- ratio of lymph α-tocopherol/phospholipid (ovariectomized rats [1]; [3]): 46.9±8.8 nmol/μmol
- α-tocopherol concentration per 100 mg total lipid (ovariectomized rats [2]; liver, ovariectomized rats fed a carnitine supplemented diet, compared with control): significantly higher
- bile flow (ovariectomized rats [2]; ovariectomized Sprague-Dawley rats, diet with 150 mg/kg L-carnitine for 8 weeks, bile collected for 8 hours, no difference vs control, mean±SD): 7.9±1.4 ml/8 hours
- biliary secretion of α-tocopherol for 8 hours (ovariectomized rats [2]; ovariectomized rats, diet with 150 mg/kg L-carnitine for 8 weeks, P<0.05 vs control, mean±SD): 53.1 ± 9.3 nmol
- ratio of liver α-tocopherol/phospholipid (ovariectomized rats [2]; ovariectomized rats, diet with 150 mg/kg L-carnitine for 8 weeks, P=0.001 vs control): 4.8±0.6 nmol/μmol
- liver concentration of α-tocopherol (ovariectomized rats [2]; ovariectomized rats, diet with 150 mg/kg L-carnitine for 8 weeks, significantly elevated vs control): 129.6 ± 19.5 nmol/g
